From ChEMBL document CHEMBL1201862, “PubChem BioAssay data set” (2004)
Values belong to the compound of their own block, whether it stands above or below them. Calls of active or inactive are those of the source.

Tests used:
[1] = target: Scavenger receptor class B member 1 (Mus musculus, UniProt Q61009); assay: mouse SR-BI DiI-HDL uptake blockers – ldlA[mSR-BI] cells, fluorescence, cherry pick, dose response (AID 493194); assay type: functional, cell-based;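 further: cellular uptake of fluorescent DiI-labeled HDL measured as cell fluorescence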
[2] = target: G2/mitotic-specific cyclin-B1 (Homo sapiens, UniProt P14635); assay: Counterscreen assay for inhibitors of Wee1 degradation: dose response cell-based assay to identify inhibitors of cyclin B degradation. [Related pubchem assays: 1410, 1321 ]; assay type: functional
G2/mitotic-specific cyclin-B1, sequence (P14635 whole entry): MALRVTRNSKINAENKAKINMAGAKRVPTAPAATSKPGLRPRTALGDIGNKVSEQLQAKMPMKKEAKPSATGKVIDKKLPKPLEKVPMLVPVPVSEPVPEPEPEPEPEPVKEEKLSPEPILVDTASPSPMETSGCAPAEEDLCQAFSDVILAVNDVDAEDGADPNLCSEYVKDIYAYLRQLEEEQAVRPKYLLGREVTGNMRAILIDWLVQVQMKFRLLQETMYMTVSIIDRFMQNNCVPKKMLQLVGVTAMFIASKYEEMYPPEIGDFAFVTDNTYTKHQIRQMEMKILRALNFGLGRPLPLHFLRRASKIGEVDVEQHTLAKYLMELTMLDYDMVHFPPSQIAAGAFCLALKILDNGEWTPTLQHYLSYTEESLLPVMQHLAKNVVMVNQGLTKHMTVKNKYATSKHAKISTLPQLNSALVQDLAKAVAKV

[3] = target: Wee1-like protein kinase (Homo sapiens, UniProt P30291); assay: Dose Response Cell-based Assay for Inhibitors of Wee1 Degradation. [Related pubchem assays: 1410, 1321 ]; assay type: functional
[4] = target: Beta-galactosidase (Escherichia coli, UniProt Q8VNN2); assay: Dose response counterscreen for EBI2 assay utilizing the enzyme, b-galactosidase.; assay type: functional
Beta-galactosidase, sequence (Q8VNN2 whole entry): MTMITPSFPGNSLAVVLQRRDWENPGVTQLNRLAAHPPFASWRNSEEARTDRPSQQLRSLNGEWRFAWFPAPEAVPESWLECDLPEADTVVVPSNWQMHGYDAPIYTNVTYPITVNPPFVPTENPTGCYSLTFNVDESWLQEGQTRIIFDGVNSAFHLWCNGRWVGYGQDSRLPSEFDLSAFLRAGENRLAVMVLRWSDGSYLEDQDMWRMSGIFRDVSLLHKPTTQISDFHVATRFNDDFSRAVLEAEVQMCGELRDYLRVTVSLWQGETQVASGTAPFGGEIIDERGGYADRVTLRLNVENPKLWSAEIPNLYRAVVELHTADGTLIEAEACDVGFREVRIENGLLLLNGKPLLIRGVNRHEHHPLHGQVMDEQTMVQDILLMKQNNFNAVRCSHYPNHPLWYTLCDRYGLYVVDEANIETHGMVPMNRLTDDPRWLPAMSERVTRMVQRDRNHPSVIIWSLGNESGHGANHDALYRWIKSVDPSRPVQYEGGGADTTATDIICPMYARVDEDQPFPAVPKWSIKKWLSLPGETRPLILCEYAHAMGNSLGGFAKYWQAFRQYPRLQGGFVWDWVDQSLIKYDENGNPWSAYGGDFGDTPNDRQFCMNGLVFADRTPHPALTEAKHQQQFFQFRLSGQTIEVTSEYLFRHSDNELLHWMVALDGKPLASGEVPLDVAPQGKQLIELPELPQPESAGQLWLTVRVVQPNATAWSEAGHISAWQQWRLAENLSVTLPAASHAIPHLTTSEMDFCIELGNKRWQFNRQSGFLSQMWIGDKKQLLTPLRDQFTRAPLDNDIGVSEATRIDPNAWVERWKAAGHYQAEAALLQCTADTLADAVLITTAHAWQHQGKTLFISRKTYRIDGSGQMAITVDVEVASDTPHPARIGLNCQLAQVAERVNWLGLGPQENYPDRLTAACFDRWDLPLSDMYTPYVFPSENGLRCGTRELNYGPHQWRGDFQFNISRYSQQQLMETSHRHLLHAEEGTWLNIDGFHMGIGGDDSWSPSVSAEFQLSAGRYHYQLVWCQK

[5] = target: Neuropeptides B/W receptor type 1 (Homo sapiens, UniProt P48145); assay: Fluorescence-based dose response cell-based high throughput screening assay to identify antagonists of the G-protein coupled receptor 7 (GPR7). [Related pubchem assays: 1952 (Screening assay (GPR7 antagonists).), 1880 (Summary AID.)]; assay type: functional
[6] = target: Melanin-concentrating hormone receptor 1 (Homo sapiens, UniProt Q99705); assay: Fluorescence-based counterscreen for antagonists of the G-protein coupled receptor 7 (GPR7): cell-based high throughput dose response assay to identify antagonists of the melanin-concentrating hormone receptor 1 (MCHR1).; assay type: functional
Melanin-concentrating hormone receptor 1, sequence (Q99705 whole entry): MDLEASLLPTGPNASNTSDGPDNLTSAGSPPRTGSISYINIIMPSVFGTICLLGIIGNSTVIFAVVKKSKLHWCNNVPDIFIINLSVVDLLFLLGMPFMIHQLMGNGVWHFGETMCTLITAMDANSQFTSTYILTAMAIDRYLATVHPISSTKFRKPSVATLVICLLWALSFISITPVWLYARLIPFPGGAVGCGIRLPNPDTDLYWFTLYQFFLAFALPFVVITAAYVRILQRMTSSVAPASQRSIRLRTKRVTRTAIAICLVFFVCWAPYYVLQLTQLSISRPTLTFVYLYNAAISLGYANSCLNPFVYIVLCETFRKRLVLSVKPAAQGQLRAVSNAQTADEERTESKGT

[7] = target: T1, Heat shock factor protein 1 (Mus musculus, UniProt P38532); assay: decrease of HSF1-responsive luciferase luminescence – cell-based, NIH3T3, dose retest, confirmation (AID 2382); assay type: functional;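 further: NIH3T3 fibroblasts with HSF1-driven luciferase reporter stressed by proteasome inhibitor MG132; luminescence from HSF1-driven luciferase expression after 8 hours of MG132 stress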
T1 sequence (P38532 whole entry): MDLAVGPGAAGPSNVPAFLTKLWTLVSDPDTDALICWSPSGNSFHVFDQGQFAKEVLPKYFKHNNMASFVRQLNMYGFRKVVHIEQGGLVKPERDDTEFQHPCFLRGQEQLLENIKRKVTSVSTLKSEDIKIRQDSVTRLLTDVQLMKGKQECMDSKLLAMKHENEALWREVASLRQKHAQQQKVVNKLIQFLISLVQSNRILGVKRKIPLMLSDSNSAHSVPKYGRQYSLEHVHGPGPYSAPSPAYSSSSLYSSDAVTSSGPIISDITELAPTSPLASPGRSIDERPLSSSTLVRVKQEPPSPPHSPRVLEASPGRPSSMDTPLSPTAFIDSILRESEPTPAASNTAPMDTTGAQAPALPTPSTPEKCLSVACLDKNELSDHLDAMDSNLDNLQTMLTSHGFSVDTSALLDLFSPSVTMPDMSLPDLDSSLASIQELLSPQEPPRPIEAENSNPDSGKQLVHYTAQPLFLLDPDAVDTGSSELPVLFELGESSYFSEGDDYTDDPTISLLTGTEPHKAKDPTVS

[8] = HEK-293T viability loss after treatment – luminescence, T-cell screen hits, cytotoxicity control for TCR NF-kB inhibitor project, dose response (AID 489026); assay type: functional, cell-based;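 further: cells exposed to compound about 14 hours before the viability readout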
[9] = target: Protein Rev (Human immunodeficiency virus type 1 group M subtype B (isolate WMJ22)(HIV-1), UniProt P05866); assay: inhibitors of Rev protein–RRE RNA complex – biochemical, protein-RNA interaction, dose response (AID 842); design: species or system Human immunodeficiency virus 1
Protein Rev, sequence (P05866 whole entry): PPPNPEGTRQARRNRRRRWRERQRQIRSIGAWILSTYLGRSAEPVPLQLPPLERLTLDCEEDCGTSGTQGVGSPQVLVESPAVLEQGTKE

[10] = HPDE-C7 pancreatic duct cell viability loss – fluorescence, HTS (AID 430); assay type: functional, cell-based; settings: Homo sapiens
[11] = viability loss of HPDE-C7K cells – cell-based, fluorescence, HTS, primary screen (AID 431); assay type: functional; settings: Homo sapiens
[12] = target: Neurotensin receptor type 1 (Homo sapiens, UniProt P30989); assay type: functional;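 further: Image-based confirmatory dose-response assay measuring agonist activity at NTR1; NTR1-expressing U2OS osteosarcoma cells imaged for beta-arrestin GFP spot formation; agonist potency where compounds increase beta-arrestin recruitment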
Neurotensin receptor type 1, sequence (P30989 whole entry): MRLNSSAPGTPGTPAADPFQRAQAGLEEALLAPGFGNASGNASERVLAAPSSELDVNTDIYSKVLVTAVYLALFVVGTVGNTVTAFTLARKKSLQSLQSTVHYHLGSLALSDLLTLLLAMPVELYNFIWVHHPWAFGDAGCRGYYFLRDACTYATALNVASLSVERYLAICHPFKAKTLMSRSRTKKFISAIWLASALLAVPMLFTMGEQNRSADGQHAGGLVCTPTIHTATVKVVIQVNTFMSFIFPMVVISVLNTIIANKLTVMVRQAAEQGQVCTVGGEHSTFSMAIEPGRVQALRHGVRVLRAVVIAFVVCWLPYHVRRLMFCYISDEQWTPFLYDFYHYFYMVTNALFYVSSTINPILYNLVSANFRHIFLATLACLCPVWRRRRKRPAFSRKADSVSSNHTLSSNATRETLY

[13] = target: T2, Fatty acid synthase (Homo sapiens, UniProt P49327); assay: inhibition of human FAS-TE enzyme activity – biochemical, endpoint fluorescence intensity, uHTS hits, dose response (AID 624327); assay type: functional;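 further: fluorescence from hydrolysis of an O-methyl fluorescein acyl ester substrate by the enzyme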
T2 sequence (P49327 whole entry): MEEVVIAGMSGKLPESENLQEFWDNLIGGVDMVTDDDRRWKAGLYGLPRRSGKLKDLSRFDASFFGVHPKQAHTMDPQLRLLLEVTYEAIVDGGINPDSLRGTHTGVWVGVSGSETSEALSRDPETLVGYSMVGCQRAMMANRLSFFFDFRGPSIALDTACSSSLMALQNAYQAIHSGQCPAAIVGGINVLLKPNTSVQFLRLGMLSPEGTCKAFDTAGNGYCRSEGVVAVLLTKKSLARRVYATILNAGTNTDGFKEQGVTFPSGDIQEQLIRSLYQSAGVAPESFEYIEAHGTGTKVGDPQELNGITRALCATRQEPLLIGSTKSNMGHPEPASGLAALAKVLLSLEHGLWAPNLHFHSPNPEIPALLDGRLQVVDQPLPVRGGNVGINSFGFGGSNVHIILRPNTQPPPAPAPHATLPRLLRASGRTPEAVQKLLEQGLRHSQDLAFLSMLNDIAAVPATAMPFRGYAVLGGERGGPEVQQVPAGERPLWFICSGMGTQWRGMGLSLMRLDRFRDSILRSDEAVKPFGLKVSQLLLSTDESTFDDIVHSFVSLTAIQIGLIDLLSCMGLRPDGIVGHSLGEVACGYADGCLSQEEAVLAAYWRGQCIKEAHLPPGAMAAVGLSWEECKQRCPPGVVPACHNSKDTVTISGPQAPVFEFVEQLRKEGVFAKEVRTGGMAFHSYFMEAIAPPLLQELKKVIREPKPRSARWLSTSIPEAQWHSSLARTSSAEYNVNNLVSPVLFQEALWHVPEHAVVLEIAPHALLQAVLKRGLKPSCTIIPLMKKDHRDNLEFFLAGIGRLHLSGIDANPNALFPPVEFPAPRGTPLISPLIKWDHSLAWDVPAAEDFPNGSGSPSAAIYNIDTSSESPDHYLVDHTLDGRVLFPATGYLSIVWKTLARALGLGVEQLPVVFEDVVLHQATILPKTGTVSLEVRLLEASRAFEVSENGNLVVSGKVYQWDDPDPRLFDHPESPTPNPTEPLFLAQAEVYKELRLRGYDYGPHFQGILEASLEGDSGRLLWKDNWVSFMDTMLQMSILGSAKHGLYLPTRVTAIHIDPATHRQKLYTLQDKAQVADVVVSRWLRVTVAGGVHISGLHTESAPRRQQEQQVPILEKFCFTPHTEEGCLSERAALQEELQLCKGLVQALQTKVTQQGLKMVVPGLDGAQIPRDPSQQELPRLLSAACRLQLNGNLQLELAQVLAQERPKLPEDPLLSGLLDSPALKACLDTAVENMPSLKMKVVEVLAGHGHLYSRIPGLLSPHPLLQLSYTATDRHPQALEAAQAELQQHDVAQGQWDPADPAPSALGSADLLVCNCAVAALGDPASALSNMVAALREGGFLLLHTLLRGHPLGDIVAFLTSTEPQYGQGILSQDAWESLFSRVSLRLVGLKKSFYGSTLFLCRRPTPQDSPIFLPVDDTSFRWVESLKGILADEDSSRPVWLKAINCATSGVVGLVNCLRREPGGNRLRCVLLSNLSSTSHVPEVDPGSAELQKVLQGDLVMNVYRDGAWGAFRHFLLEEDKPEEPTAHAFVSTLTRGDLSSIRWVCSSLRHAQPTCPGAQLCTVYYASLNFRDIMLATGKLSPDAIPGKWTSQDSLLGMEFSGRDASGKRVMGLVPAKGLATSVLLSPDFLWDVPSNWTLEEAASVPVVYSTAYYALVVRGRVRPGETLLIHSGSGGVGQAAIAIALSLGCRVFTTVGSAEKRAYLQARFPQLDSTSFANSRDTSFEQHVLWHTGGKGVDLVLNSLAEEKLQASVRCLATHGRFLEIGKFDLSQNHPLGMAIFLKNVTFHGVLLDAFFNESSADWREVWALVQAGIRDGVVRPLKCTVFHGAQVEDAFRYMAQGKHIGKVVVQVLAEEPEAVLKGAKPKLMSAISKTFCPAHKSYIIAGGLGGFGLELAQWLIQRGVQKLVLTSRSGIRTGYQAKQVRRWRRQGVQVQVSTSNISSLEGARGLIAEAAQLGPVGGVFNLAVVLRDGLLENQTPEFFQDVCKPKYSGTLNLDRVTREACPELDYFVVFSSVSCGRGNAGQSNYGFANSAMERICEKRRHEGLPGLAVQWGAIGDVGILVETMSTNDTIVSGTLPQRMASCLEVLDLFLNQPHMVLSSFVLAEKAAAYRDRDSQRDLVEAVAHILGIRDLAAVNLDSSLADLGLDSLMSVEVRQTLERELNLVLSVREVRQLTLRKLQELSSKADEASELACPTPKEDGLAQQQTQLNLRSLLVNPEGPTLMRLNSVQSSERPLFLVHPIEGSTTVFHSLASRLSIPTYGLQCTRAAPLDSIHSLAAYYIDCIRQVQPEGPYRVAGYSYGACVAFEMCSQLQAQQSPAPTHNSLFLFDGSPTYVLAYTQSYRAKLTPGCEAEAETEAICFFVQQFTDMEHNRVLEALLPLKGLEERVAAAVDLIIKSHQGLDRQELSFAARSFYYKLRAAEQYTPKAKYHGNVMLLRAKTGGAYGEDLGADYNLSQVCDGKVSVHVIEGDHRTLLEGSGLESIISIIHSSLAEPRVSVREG

[14] = target: T2, Fatty acid synthase; assay: inhibition of human FAS-TE enzyme activity – biochemical, kinetic fluorescence intensity, dose response (AID 624326); assay type: functional;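 further: rate of fluorescence rise from hydrolysis of a fluorogenic O-methyl fluorescein ester substrate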

AC50 [1]: 0.819 µM (active)
Structure (SMILES): Cc1cc(C)n(CC(=O)NC2CCCc3c2cnn3-c2ccc(C)c(C)c2)n1 (centres undefined)

EC50 [2]: > 49.7 µM (not active)
EC50 [3]: > 49.7 µM (not active)
IC50 [4]: > 80 µM (inactive)
Structure (SMILES): COC(=O)C1CCN(C(=O)/C=C/c2ccc(OC)cc2)CC1

Structure (SMILES): COc1ccccc1C(=O)N(CCC1CCCN1C)c1nc2ccccc2s1 (centres undefined)
IC50 [5]: 21.4 µM (not active)
IC50 [6]: 29.7 µM (not active)
EC50 [7]: < 0.16 µM (active)
IC50 [8]: > 80 µM (inactive)

Structure (SMILES): CN(C)CC(O)COc1ccc(-c2ccc(C#N)cc2)cc1 (centres undefined)
IC50 [9]: > 79.4 µM (not active)
EC50 [10]: > 20 µM (not active)
EC50 [11]: > 20 µM (not active)

EC50 [12]: 19.9 µM (active)
IC50 [13]: 8.13 µM (active)
IC50 [14]: 7.01 µM (active)
Structure (SMILES): C[C@@H](NC(=O)c1[nH]cnc1C(=O)Nc1ccc(Cl)cc1)c1ccccc1
